Data as given in PMC9764201, “Half-calcified calmodulin promotes basal activity and inactivation of the L-type calcium channel CaV1.2” (The Journal of Biological Chemistry, 2022).
pKd: −log10 of the molar value. Ends that are not written are not given here.

What was measured:
Ca2/CaM12’ = biological target: T1, Ca2/CaM12’ (Xenopus laevis, UniProt P0DP33, D21A/D23A/D25A/D57A/D59A/E32Q/E68Q/N61A); test: ITC of Ca2/CaM12’ binding to IQ peptides; details: 27 °C; for n-value (stoichiometry) / ΔH: SD from three independent trials
T1 construct: made in house; host or cells: E. coli BL21(DE3) Codon Plus, pET11d

[1] = biological target: fluorescein-labeled CaV1.2 IQ peptide Y1657D (rat); test: fluorescence polarisation; fluorescein-labeled peptide (100 nM) titrated with apoCaM in Ca2+-free buffer: 20 mM Tris, pH 7.4, 100 mM KCl, 1 mM MgCl2, 2.0 mM EGTA

Compound: TVGKFYATFLIQEYARKFKKR [IQ^F1658A]
- n-value (stoichiometry) (Ca2/CaM12’): 1.0 ± 0.25
- ΔH (Ca2/CaM12’): -9.5 ± 0.2 kcal/mol

Compound: CC[C@H](C)[C@H](NC(=O)[C@H](CC(C)C)NC(=O)[C@H](Cc1ccccc1)NC(=O)[C@@H](NC(=O)[C@H](C)NC(=O)[C@H](Cc1ccc(O)cc1)NC(=O)[C@H](Cc1ccccc1)NC(=O)[C@H](CCCCN)NC(=O)CNC(=O)[C@@H](NC(=O)[C@@H](N)[C@@H](C)O)C(C)C)[C@@H](C)O)C(=O)N[C@@H](CCC(N)=O)C(=O)N[C@@H](CCC(=O)O)C(=O)N[C@@H](Cc1ccc(O)cc1)C(=O)N[C@@H](CC(=O)O)C(=O)N[C@@H](CCCNC(=N)N)C(=O)N[C@@H](CCCCN)C(=O)N[C@@H](Cc1ccccc1)C(=O)N[C@@H](CCCCN)C(=O)N[C@@H](CCCCN)C(=O)N[C@@H](CCCNC(=N)N)C(=O)O [IQ^F1658D]
- binding to Ca2/CaM12’ compared to IQ^WT (Ca2/CaM12’): weaker binding
- n-value (stoichiometry) (Ca2/CaM12’): 0.8 ± 0.5
- ΔH (Ca2/CaM12’): -5.9 ± 0.7 kcal/mol

Compound: apoCaM (Ca2+-free calmodulin) (from UniProt P0DP33 1-149) (natural protein)
- pKd [1]: 4.22

Compound: CC[C@H](C)[C@H](NC(=O)[C@H](CC(C)C)NC(=O)[C@H](Cc1ccccc1)NC(=O)[C@@H](NC(=O)[C@H](C)NC(=O)[C@H](Cc1ccc(O)cc1)NC(=O)[C@H](Cc1ccccc1)NC(=O)[C@H](CCCCN)NC(=O)CNC(=O)[C@@H](NC(=O)[C@@H](N)[C@@H](C)O)C(C)C)[C@@H](C)O)C(=O)N[C@@H](CCC(N)=O)C(=O)N[C@@H](CCC(=O)O)C(=O)N[C@@H](CC(=O)O)C(=O)N[C@@H](Cc1ccccc1)C(=O)N[C@@H](CCCNC(=N)N)C(=O)N[C@@H](CCCCN)C(=O)N[C@@H](Cc1ccccc1)C(=O)N[C@@H](CCCCN)C(=O)N[C@@H](CCCCN)C(=O)N[C@@H](CCCNC(=N)N)C(=O)O [IQ^Y1657D]
- binding to Ca2/CaM12’ compared to IQ^WT (Ca2/CaM12’): weaker binding

Compound: CC[C@H](C)[C@H](NC(=O)[C@H](CC(C)C)NC(=O)[C@H](Cc1ccccc1)NC(=O)[C@@H](NC(=O)[C@H](C)NC(=O)[C@H](C)NC(=O)[C@H](Cc1ccccc1)NC(=O)[C@H](CCCCN)NC(=O)CNC(=O)[C@@H](NC(=O)[C@@H](N)[C@@H](C)O)C(C)C)[C@@H](C)O)C(=O)N[C@@H](CCC(N)=O)C(=O)N[C@@H](CCC(=O)O)C(=O)N[C@@H](Cc1ccc(O)cc1)C(=O)N[C@@H](Cc1ccccc1)C(=O)N[C@@H](CCCNC(=N)N)C(=O)N[C@@H](CCCCN)C(=O)N[C@@H](Cc1ccccc1)C(=O)N[C@@H](CCCCN)C(=O)N[C@@H](CCCCN)C(=O)N[C@@H](CCCNC(=N)N)C(=O)O [IQ^Y1649A]
- binding to Ca2/CaM12’ compared to IQ^WT (Ca2/CaM12’): weaker binding
- n-value (stoichiometry) (Ca2/CaM12’): 0.88 ± 0.25
- ΔH (Ca2/CaM12’): -9.7 ± 0.2 kcal/mol

Compound: CC(C)C[C@H](NC(=O)[C@H](Cc1ccccc1)NC(=O)[C@@H](NC(=O)[C@H](C)NC(=O)[C@H](Cc1ccc(O)cc1)NC(=O)[C@H](Cc1ccccc1)NC(=O)[C@H](CCCCN)NC(=O)CNC(=O)[C@@H](NC(=O)[C@@H](N)[C@@H](C)O)C(C)C)[C@@H](C)O)C(=O)N[C@@H](C)C(=O)N[C@@H](CCC(N)=O)C(=O)N[C@@H](CCC(=O)O)C(=O)N[C@@H](Cc1ccc(O)cc1)C(=O)N[C@@H](Cc1ccccc1)C(=O)N[C@@H](CCCNC(=N)N)C(=O)N[C@@H](CCCCN)C(=O)N[C@@H](Cc1ccccc1)C(=O)N[C@@H](CCCCN)C(=O)N[C@@H](CCCCN)C(=O)N[C@@H](CCCNC(=N)N)C(=O)O [IQ^I1654A]
- binding to Ca2/CaM12’ compared to IQ^WT (Ca2/CaM12’): weaker binding
